{"source": "patent US11324178B2", "about": "“Wheat having resistance to glyphosate due to alterations in 5-enol- pyruvylshikimate-3 phosphate synthase” (priority 2015, dated 2022)", "key": {"[1]": {"tested_on": "maize EPSPS (threonine to isoleucine)", "details": "U.S. Pat. No. 6,566,587; cited from earlier work"}, "[2]": {"tested_on": "wheat seeds homozygous for the double preferred EPSPS mutations (T173I D genome and P177S A genome)", "assay": "Growth chamber germination on MS medium containing glyphosate, shoot and root length", "format": "in vivo, Triticum aestivum", "details": "MS media containing glyphosate, double mutation seeds compared with single mutation seeds", "text": "(§1) Plants homozygous for the single preferred mutations (the T173I mutation in the B genome, the T173I mutation in the D genome and the P177S mutation in the A genome) were identified in the M3 seeds. Wild type siblings were also identified and used as controls. Plants that were homozygous for the T173I mutation in the D genome were crossed to plants that were homozygous for the P177S mutation in the A genome to generate double mutant plants.\n(§2) Growth Chamber Studies: Seeds from plants that were homozygous for one of the single preferred mutations and seeds from their wild type sibling control plants were surface sterilized, placed on moist germination paper overnight, and then grown in glass tubes with 0.1× Murashige & Skoog (MS) medium containing 0 or 0.15 mM glyphosate. Germination was performed in a growth chamber under a light condition of 16 hours of light/8 hours of dark of 80 microEinsteins. At 10-14 days of development, shoot and root lengths were measured.\n(§3) Seeds from plants that were homozygous for the double preferred mutations (both T173 I and P177S) were compared to seeds that were homozygous for each of the single preferred mutation for their ability to survive on MS media containing glyphosate. Seeds from their wild type sibling plants were used as […]. Seeds were germinated as described above."}, "[3]": {"tested_on": "wheat seeds homozygous for one single preferred EPSPS mutation (T173I B genome, T173I D genome or P177S A genome)", "assay": "Growth chamber germination on MS medium containing glyphosate, shoot and root length", "format": "in vivo, Triticum aestivum", "details": "0.1x MS medium, 0.15 mM glyphosate, 10-14 days of development", "text": "as §1, §2, §3"}, "[4]": {"tested_on": "wild type sibling control seeds (wheat cultivar Express)", "assay": "Growth chamber germination on MS medium containing glyphosate, shoot and root length", "format": "in vivo, Triticum aestivum", "details": "0.1x MS medium, 0.15 mM glyphosate, 10-14 days of development", "text": "as §1, §2, §3"}, "E. coli EPSPS T97I": {"target": "E. coli EPSPS T97I (Escherichia coli, UniProt P0A6D3, T97I)", "sequence (P0A6D3 whole entry T97I)": "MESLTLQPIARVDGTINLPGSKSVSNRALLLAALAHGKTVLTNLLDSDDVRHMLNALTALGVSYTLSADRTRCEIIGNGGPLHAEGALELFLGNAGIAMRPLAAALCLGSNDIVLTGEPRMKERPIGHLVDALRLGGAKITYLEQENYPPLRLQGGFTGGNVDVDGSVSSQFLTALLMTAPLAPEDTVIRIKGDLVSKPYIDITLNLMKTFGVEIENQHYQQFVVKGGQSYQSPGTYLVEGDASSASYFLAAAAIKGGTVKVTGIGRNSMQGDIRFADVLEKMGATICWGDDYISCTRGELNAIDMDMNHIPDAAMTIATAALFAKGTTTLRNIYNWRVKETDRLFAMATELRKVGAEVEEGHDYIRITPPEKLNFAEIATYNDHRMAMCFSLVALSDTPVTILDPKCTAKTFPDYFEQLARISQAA", "details": "Funke et al. 2009; cited from earlier work"}}, "note": "“Also recorded” adds a separate entry of the source.", "data": [{"smiles": "O=C(O)CNCP(=O)(O)O", "note": "[glyphosate]", "values": [{"measurement": "inhibition of mutated enzyme by glyphosate", "setting": "[1]", "result": "reduced inhibition by glyphosate"}, {"measurement": "growth (shoot and root length) of seeds on medium containing glyphosate", "setting": "[2]", "result": "more resistant to glyphosate than seeds that were homozygous for each of the single preferred mutations"}, {"measurement": "growth (shoot and root length) of seeds on medium containing glyphosate", "setting": "[3]", "result": "the majority of seeds with mutations grew well; also recorded: resistant to glyphosate and grew well"}, {"measurement": "growth (shoot and root length) of seeds on medium containing glyphosate", "setting": "[4]", "result": "for the most part failed to grow"}, {"measurement": "sensitivity of mutated enzyme to glyphosate", "setting": "E. coli EPSPS T97I", "result": "leads to sensitivity to glyphosate"}]}]}
